One assay deals with T1, hEg5-367H (Homo sapiens, UniProt P52732).
T1 construct: motor domain (amino acid residues 1–367) of human Eg5; His6 (C); made in house
T1 sequence (P52732 1-367): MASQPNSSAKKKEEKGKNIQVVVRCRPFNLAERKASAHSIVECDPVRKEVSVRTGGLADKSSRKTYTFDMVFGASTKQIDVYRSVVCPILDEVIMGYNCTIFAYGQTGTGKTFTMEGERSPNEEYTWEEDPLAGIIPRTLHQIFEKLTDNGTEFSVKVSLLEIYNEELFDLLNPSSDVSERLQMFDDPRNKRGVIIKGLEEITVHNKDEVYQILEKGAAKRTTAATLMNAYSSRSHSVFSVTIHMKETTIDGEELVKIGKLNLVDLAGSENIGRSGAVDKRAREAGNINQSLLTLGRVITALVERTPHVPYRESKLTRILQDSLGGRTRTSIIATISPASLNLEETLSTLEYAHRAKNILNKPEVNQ
As to the kind of experiment: ATP hydrolysis by recombinant human Eg5 motor domain (NADH-enzyme coupled assay). It counts as biochemical. How it is done:
Figure 2 Structure-activity relationship of monastrol derivatives. (A) Scheme depicting the Biginelli condensation, a one-pot reaction for preparing monastrol derivatives. […] Each data point is the average of three independent experiments. […] Each cell-based assay was performed in duplicate.
We used a modified PCR mutagenesis protocol to introduce mutations into hEg5-367H, a plasmid encoding the C-terminally His6-tagged motor domain (amino acid residues 1–367) of human Eg5. The wild-type and mutant proteins were expressed and purified using Ni-NTA affinity chromatography and concentrated to between 3 and 10 mg/ml protein as described.
(§1) ATP hydrolysis by recombinantly expressed kinesin motor domains was measured using an NADH-enzyme coupled assay. ATP hydrolysis was measured in KC25 buffer supplemented with 5 μM taxol, 1 mM ATP-KOH (pH 7.0), the appropriate concentration of motor domain, and the appropriate concentrations of taxol-polymerized microtubules.

The target in a further assay is T2, Klp61F-364H (Drosophila melanogaster, UniProt P46863).
T2 construct: His6 (C); made in house; host or cells: vector pRSETa
T2 sequence (P46863 1-364): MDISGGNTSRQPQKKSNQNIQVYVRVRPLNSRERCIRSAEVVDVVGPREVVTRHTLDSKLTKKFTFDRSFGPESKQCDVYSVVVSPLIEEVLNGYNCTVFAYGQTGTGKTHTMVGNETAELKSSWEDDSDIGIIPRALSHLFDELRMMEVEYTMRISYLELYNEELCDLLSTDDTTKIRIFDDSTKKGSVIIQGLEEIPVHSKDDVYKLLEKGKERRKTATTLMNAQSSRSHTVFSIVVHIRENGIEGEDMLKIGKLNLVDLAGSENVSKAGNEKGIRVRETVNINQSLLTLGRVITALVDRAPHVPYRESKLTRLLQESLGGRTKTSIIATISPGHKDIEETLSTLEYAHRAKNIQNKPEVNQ
As to the kind of experiment: ATP hydrolysis by Klp-61F motor domain (NADH-enzyme coupled assay). It counts as biochemical, D. melanogaster. How it is done:
Each data point is the average of three independent experiments.
as §1

Like-named read-outs stand apart in the source and are kept apart here.

For the molecule `CCOC(=O)C1=C(C)NC(=S)NC1c1cccc(O)c1` (stereo not drawn) [Monastrol], the IC50 on hEg5-367H (500 nM hEg5-367H, KC25 buffer, 1 mM ATP-KOH (pH 7.0), 1 μM taxol-stabilized microtubules, read-out: IC50 (μM), inhibition of ATP hydrolysis by Eg5 motor domain) amounted to 5.2 ± 0.4 µM; at hEg5-367H (wild-type motor domain, Figure 4B, legend: basal ATP hydrolysis, read-out: IC50(μM) of monastrol, hEg5-367H), 10 ± 2 µM. For the same molecule, at Klp61F-364H, the “Inhibition of microtubule-stimulated ATP hydrolysis by Klp-61F motor domain, in words” value is given as “weakly inhibited”.
